Structures are written as SMILES. Calls of active or inactive are those of the source. The rule behind the calls is not given here.

The test system of data set [1] is Calvarial osteoblast. The experiment in a line: Induction of mineralization in rat calvarial osteoblast at 1 pM supplemented with fresh medium containing compounds every 48 hrs for 21 days by alizarin red-S staining based assay. In kind it is functional, cell-based.
The test system of data set [2] is Calvarial osteoblast. In words: Cytotoxicity against rat calvarial osteoblast assessed as effect on cell viability at 0.000001 to 100 uM after 48 hrs by MTT assay. It is filed as cell-based. In general terms: Tetrazolium assays rely on reduction of a dye to a coloured formazan, in cell work by metabolically active cells.
Data set [3] deals with Rattus norvegicus. In words: In vivo induction of osteogenesis in rat assessed as increase in COL1 mRNA expression at 10 mg/kg, sc administered daily for 5 days by qRT-PCR analysis. In kind it is functional, organism-based.
Data set [4] concerns Calvarial osteoblast. In words: Induction of osteoblast differentiation in rat calvarial osteoblast assessed as increase in BMP2 mRNA expression at 1 to 100 pM after 48 hrs by SYBR green dye based qRT-PCR analysis relative to control. It is filed as functional.
Data set [5] has as its system Rattus norvegicus. In words: In vivo induction of osteogenesis in rat assessed as increase in BMP2 mRNA expression at 10 mg/kg, sc administered daily for 5 days by qRT-PCR analysis. It is filed as functional, organism-based. In general terms: Real-time PCR tracks product formation cycle by cycle.
Data set [6] concerns Rattus norvegicus. The experiment in a line: In vivo induction of osteogenesis in rat assessed as increase in OCN mRNA expression at 5 mg/kg, sc administered daily for 5 days by qRT-PCR analysis. It is filed as functional, organism-based.
The subject of data set [7] is Rattus norvegicus. In words: In vivo induction of osteogenesis in rat assessed as increase in BMP2 mRNA expression at 2.5 mg/kg, sc administered daily for 5 days by qRT-PCR analysis. In kind it is functional, organism-based.
The subject of data set [8] is Calvarial osteoblast. The experiment in a line: Induction of osteoblast differentiation in rat calvarial osteoblast assessed as increase in ALP activity using PNPP as substrate measured after 48 hrs. In kind it is functional, cell-based. As to conditions: for EC50: Rattus norvegicus, Calvarial osteoblast, 48 h.
For data set [9], the system named is Calvarial osteoblast. In words: Induction of osteoblast differentiation in rat calvarial osteoblast assessed as increase in Runx2 mRNA expression at 1 pM after 48 hrs by SYBR green dye based qRT-PCR analysis relative to control. It is filed as functional.
The test system of data set [10] is Calvarial osteoblast. In words: Induction of osteoblast differentiation in rat calvarial osteoblast assessed as increase in COL1 mRNA expression at 1 pM after 48 hrs by SYBR green dye based qRT-PCR analysis. It is filed as functional, cell-based.
The subject of data set [11] is Rattus norvegicus. The experiment in a line: In vivo induction of osteogenesis in rat assessed as increase in OCN mRNA expression at 10 mg/kg, sc administered daily for 5 days by qRT-PCR analysis. In kind it is functional, organism-based.
The test system of data set [12] is Rattus norvegicus. In words: In vivo induction of osteogenesis in rat assessed as increase in COL1 mRNA expression at 2.5 mg/kg, sc administered daily for 5 days by qRT-PCR analysis. In kind it is functional, organism-based.
Data set [13] concerns Calvarial osteoblast. The experiment in a line: Induction of osteoblast differentiation in rat calvarial osteoblast assessed as increase in BMP2 mRNA expression at 0.01 to 1 uM after 48 hrs by SYBR green dye based qRT-PCR analysis relative to control. In kind it is functional.
In data set [14] the test system is Calvarial osteoblast. In words: Induction of mineralization in rat calvarial osteoblast at 1 uM supplemented with fresh medium containing compounds every 48 hrs for 21 days by alizarin red-S staining based assay. It is filed as functional, cell-based.
Data set [15] has as its system Calvarial osteoblast. The experiment in a line: Induction of mineralization in rat calvarial osteoblast at 10 nM supplemented with fresh medium containing compounds every 48 hrs for 21 days by alizarin red-S staining based assay. It is filed as functional, cell-based.
Data set [16] has as its system Calvarial osteoblast. The experiment in a line: Induction of osteoblast differentiation in rat calvarial osteoblast assessed as increase in BMP2 mRNA expression at 0.1 to 10 nM after 48 hrs by SYBR green dye based qRT-PCR analysis relative to control. It is filed as functional.

As for `Cc1cc(C2C3=C(CCCC3=O)OC3=C2C(=O)CCC3)cc2cc(C(=O)c3ccc(F)cc3)oc12`, the result with Calvarial osteoblast [1], in the data set on Rattus norvegicus [3], in the data set on Rattus norvegicus [5], in the data set with Rattus norvegicus [6], in the data set on Rattus norvegicus [7] and in the data set with Calvarial osteoblast [10] was Active. In addition, the result in the data set with Rattus norvegicus [11] and in the data set on Rattus norvegicus [12] was Active. The Activity entry in the data set on Calvarial osteoblast [2] is on record as “Non-Toxic”. In addition, the “fold change (FC)” value in the data set with Calvarial osteoblast [4] is listed as 2.5; in the data set with Calvarial osteoblast [9], 2. Also, the “concentration of maximal effect” value in the data set on Calvarial osteoblast [8] was 1 pM. Further, the EC50 (as a rule, the concentration giving half of the maximal effect) in the data set on Calvarial osteoblast [8] was 0.000822 nM.

Consider `CCc1cc(C2C3=C(CC(C)(C)CC3=O)OC3=C2C(=O)CC(C)(C)C3)cc2cc(C(=O)c3ccc(F)cc3)oc12`, for which, in the data set with Calvarial osteoblast [2], the Activity result was “Non-Toxic”. Further, in the data set with Calvarial osteoblast [8], the “concentration of maximal effect” value was 1e+07 pM and the EC50 was 7960 nM. Moreover, the “fold change (FC)” value in the data set on Calvarial osteoblast [13] is listed as 2. Moreover, the outcome in the data set with Calvarial osteoblast [14] was Active.

Take `CCc1cc(C2C3=C(CCCC3=O)OC3=C2C(=O)CCC3)cc2cc(C(=O)c3ccc(F)cc3)oc12`: in the data set on Calvarial osteoblast [2], the Activity entry is given as “Non-Toxic”. The result in the data set on Calvarial osteoblast [15] was Active. In addition, in the data set on Calvarial osteoblast [8], the “concentration of maximal effect” value was found to be 10000 pM and the EC50 came out at 7.59 nM. For the same compound, the “fold change (FC)” value with Calvarial osteoblast [16] is given as 2.

The record behind these values is ChEMBL document CHEMBL4270542, “Synthesis and study of benzofuran-pyran analogs as BMP-2 targeted osteogenic agents” (Eur J Med Chem, 2018).
